Laboratory results reported in US6809096B1, “Phenanthroline-7-one derivatives and their therapeutic uses” (Laboratoire L. Lafon, priority 1999, dated 2004).

Legend:
[1] = Determination of the maximum tolerated dose (MTD); settings: mouse, in vivo, ip; B6D2F1/Jico mice, single intraperitoneal administration, survival over 14 days, doses 2.5 to 160 mg/kg; read-out: DMT (mg/kg) (Maximum Tolerated Doses)
Protocol: (§1) 2—Determination of the Maximum Tolerated Dose (MTD)
(§2) The evaluation of the maximum tolerated dose was carried out on B6D2F1/Jico mice aged from 4 to 6 weeks. The compounds were administered intraperitoneally at increasing doses ranging from 2.5 to 160 mg/kg. The value of the MTD (expressed in mg/kg) is determined from the observation of the survival rates of the animals over a period of 14 days after a single administration of the product under consideration. The change in the weight of the animals is also monitored over this period. When that the value of the MTD is greater than 160 mg/kg, the value of the MTD is categorized as 160 mg/kg by default.

HI-MXT tumours = experiment: In vivo antitumour activity, hormone-insensitive mouse mammary carcinoma MXT (HI-MXT), tumour growth; settings: 5 mg/kg intraperitoneally; for Tumour area (expressed as %): decrease (−) or increase (+) in HI-MXT tumour area vs control on the 21st day after grafting, 6 administrations
Protocol: The tests were carried out on models of:
hormone-insensitive mouse mammary carcinoma MXT (HI-MXT),
The model of mouse mammary adenocarcinoma MXT of Watson C. et al. (Cancer Res., 1977; […]: 3344-48), grafted onto B6D2F1/Jico mice aged from 4 to 6 weeks, is derived from the mammary gland milk ducts. Initially hormone-sensitive (HS-MXT model), the differentiated tumour develops in the direction of an undifferentiated hormone-insensitive tumour (HI-MXT model). […] This is the case, for example, with cyclophosphamide, etoposide or adriamycin.
(§3) When the MTD value of a product was determined, its in vivo antitumour activity was characterized at the MTD/2, MTD/4 and MTD/8 doses on the models of mammary adenocarcinoma of mouse origin HS-MXT and of mouse mammary carcinoma HI-MXT and on the model of subcutaneous lymphoma L 1210.
(§4) In all the examples presented below, whatever the model, the control condition is represented by a batch of 9 or 15 mice to which is administered, for 3 consecutive weeks and at the rate of 3 administrations (Monday, Wednesday and Friday) per week, a volume of 0.2 ml of physiological saline comprising the solvent used to dissolve the various compounds of formula (I) and (Ia) used.
i)—The tumour growth was evaluated by measuring twice weekly (Monday and Friday) the area of the grafted HS-MXT, HI-MXT or L 1210 tumours. This area is calculated by multiplying the value of the two greatest perpendicular axes of the tumour. The value of these axes is measured using a sliding caliper.
The influence of the two products CRL 8293 and CRL 8294 on the growth of HI-MXT tumours will be presented below by way of example. Each batch of mice grafted with HI-MXT tumours relating to a given experimental condition comprises 15 animals.
The product CRL 8293 is administered intraperitoneally. The first injection of the product is carried out on the seventh day postgrafting (D7) at the rate of 3 injections per week (Monday, Wednesday and Friday) for 3 consecutive weeks and at a dose of 5 mg/kg.
The product CRL 8294 is administered intraperitoneally. The first injection of the product is carried out on the seventh day postgrafting (D7) at the rate of 3 injections per week (Monday, Wednesday and Friday) for 3 consecutive weeks and at a dose of 5 mg/kg.
The decreases (−) or the increases (+) in the area of the HI-MXT tumours induced with treatments 1 and 2 with respect to the control condition on the 21st day after the tumour grafting, i.e. after 6 administrations of the product CRL 8293 or of the product CRL 8294, are shown, as percentage, in the following Table II. 100% of the control animals are still alive on the 21st day postgrafting.

B6D2F1/Jico mice = experiment: Determination of the maximum tolerated dose (MTD); settings: mouse, in vivo, ip
Protocol: as §1, §2

lymphoma L 1210 = experiment: In vivo antitumour activity, subcutaneous lymphoma L 1210, survival (T/C); design: species or system mouse
Protocol: The model of lymophoma L 1210 is a model of L 1210 leukemia cells of mouse origin grafted subcutaneously in the mouse. They give rise, in 100% of cases, to a rapid-growth subcutaneous solid tumour (L 1210 s.c.).
as §3, §4
ii)—The survival rate of the mice is calculated in the form or a ratio T/C, where: [formula]
This ratio represents the mean survival time of the […] of the batch of treated mice with respect to the mean survival time of the median mouse of the batch of control mice. Thus, a molecule induces a significant (P<0.05) increase in the survival of the animals when the T/C index exceeds 130%. On the other hand, it has a toxic effect when this T/C value is less than 70%. […]

| SMILES | MTD at 14 days [1] | growth of the HI-MXT tumours (in words) (HI-MXT tumours) | Tumour area (expressed as %) (HI-MXT tumours) | DMT (mg/kg) (Maximum Tolerated Doses) (B6D2F1/Jico mice) | mean survival time of the median mouse (in words) (lymphoma L 1210; subcutaneous lymphoma L 1210, vs control mice) | T/C (expressed a %) (lymphoma L 1210; survival ratio treated/control, L 1210 s.c., 1.25 mg/kg intraperitoneally, 3 injections per week for 3 weeks from D7) |
| --- | --- | --- | --- | --- | --- | --- |
| O=C1c2cccnc2-c2nccc3ccnc1c23 [CRL 8293, 7H-Pyrido[4,3,2-de][1,10]phenanthroline-7-one] | 10 mg/kg | significant decrease | −33% | – | – | – |
| O=C1c2ncccc2-c2nccc3ccnc1c23 [CRL 8294, 7H-Pyrido[4,3,2-de][1,7phenanthroline-7-one] | – | significant decrease | −36% | 10 mg/kg | significant extension | 136% |
